Measurements as given in publication PMC11822212, “High-throughput screening identifies Aurora kinase B as a critical therapeutic target for Merkel cell carcinoma” (Nature Communications, 2025).
Where two headings read alike, the source gives them in different places.

What was measured:
Experiment in all cases: qHTS cell viability (CellTiter-Glo, 72 h; primary and follow-up small molecule screen)
Format in all cases: cell-based, human
UISO cells (VN-MCC) = system: UISO cells (VN-MCC)
MCC13 cells (VN-MCC) = system: MCC13 cells (VN-MCC)
MKL-2 cells (VP-MCC) = system: MKL-2 cells (VP-MCC)
MKL-1 cells (VP-MCC) = system: MKL-1 cells (VP-MCC)
MCC26 cells (VN-MCC) = system: MCC26 cells (VN-MCC)
WAGA cells (VP-MCC) = system: WAGA cells (VP-MCC)
[1] = follow-up screen, UISO, replicate 1
[2] = follow-up screen, UISO, replicate 2
[3] = follow-up screen, UISO, replicate 3
[4] = follow-up screen, MCC13, replicate 1
[5] = follow-up screen, MCC13, replicate 2
[6] = follow-up screen, MCC13, replicate 3
[7] = follow-up screen, MKL-2, replicate 1
[8] = follow-up screen, MKL-2, replicate 2
[9] = follow-up screen, MKL-2, replicate 3
[10] = follow-up screen, MKL-1, replicate 1
[11] = follow-up screen, MKL-1, replicate 2
[12] = follow-up screen, MKL-1, replicate 3
[13] = follow-up screen, MCC26, replicate 1
[14] = follow-up screen, MCC26, replicate 2
[15] = follow-up screen, MCC26, replicate 3
[16] = follow-up screen, WAGA, replicate 1
[17] = follow-up screen, WAGA, replicate 2
[18] = follow-up screen, WAGA, replicate 3

| Structure (SMILES) | Area under the dose-response curve (AUC) UISO Replicate 1 (UISO cells (VN-MCC)) | Area under the dose-response curve (AUC) UISO Replicate 2 (UISO cells (VN-MCC)) | Area under the dose-response curve (AUC) UISO Replicate 3 (UISO cells (VN-MCC)) | Area under the dose-response curve (AUC) MCC13 Replicate 1 (MCC13 cells (VN-MCC)) | Area under the dose-response curve (AUC) MCC13 Replicate 2 (MCC13 cells (VN-MCC)) | Area under the dose-response curve (AUC) MCC13 Replicate 3 (MCC13 cells (VN-MCC)) | Area under the dose-response curve (AUC) MKL-2 Replicate 1 (MKL-2 cells (VP-MCC)) | Area under the dose-response curve (AUC) MKL-2 Replicate 2 (MKL-2 cells (VP-MCC)) | Area under the dose-response curve (AUC) MKL-2 Replicate 3 (MKL-2 cells (VP-MCC)) | Area under the dose-response curve (AUC) MKL-1 Replicate 1 (MKL-1 cells (VP-MCC)) | Area under the dose-response curve (AUC) MKL-1 Replicate 2 (MKL-1 cells (VP-MCC)) | Area under the dose-response curve (AUC) MKL-1 Replicate 3 (MKL-1 cells (VP-MCC)) | Area under the dose-response curve (AUC) MCC26 Replicate 1 (MCC26 cells (VN-MCC)) | Area under the dose-response curve (AUC) MCC26 Replicate 2 (MCC26 cells (VN-MCC)) | Area under the dose-response curve (AUC) MCC26 Replicate 3 (MCC26 cells (VN-MCC)) | Area under the dose-response curve (AUC) WAGA Replicate 1 (WAGA cells (VP-MCC)) | Area under the dose-response curve (AUC) WAGA Replicate 2 (WAGA cells (VP-MCC)) | Area under the dose-response curve (AUC) WAGA Replicate 3 (WAGA cells (VP-MCC)) | Area under the dose-response curve (AUC) UISO Replicate 1 (UISO cells (VN-MCC); [1]) | Area under the dose-response curve (AUC) UISO Replicate 2 (UISO cells (VN-MCC); [2]) | further results |
| --- | --- | --- | --- | --- | --- | --- | --- | --- | --- | --- | --- | --- | --- | --- | --- | --- | --- | --- | --- | --- | --- |
| CS[C@H]1SC[C@H]2C(=O)N(C)[C@@H](C(C)C)C(=O)OC[C@@H](NC(=O)c3cnc4ccccc4n3)C(=O)N[C@@H](C)C(=O)N(C)[C@@H]1C(=O)N(C)[C@@H](C(C)C)C(=O)OC[C@@H](NC(=O)c1cnc3ccccc3n1)C(=O)N[C@@H](C)C(=O)N2C [Echinomycin] | 140.9 | 135.8 | 136.4 | 310.2 | 265.0 | 244.8 | 166.1 | 154.0 | 225.2 | 235.9 | 188.8 | 250.5 | 267.2 | 264.2 | 215.9 | 225.7 | 172.6 | 225.4 |  |  |  |
| CC[C@H]1CN2CCc3cc(OC)c(OC)cc3[C@@H]2C[C@@H]1C[C@H]1NCCc2cc(OC)c(OC)cc21 [Emetine] |  |  |  |  |  |  |  |  |  |  |  |  |  |  |  |  |  |  | 267.1 | 258.2 | Area under the dose-response curve (AUC) UISO Replicate 3 (UISO cells (VN-MCC); [3]): 246.0; Area under the dose-response curve (AUC) MCC13 Replicate 1 (MCC13 cells (VN-MCC); [4]): 319.8; Area under the dose-response curve (AUC) MCC13 Replicate 2 (MCC13 cells (VN-MCC); [5]): 335.5; Area under the dose-response curve (AUC) MCC13 Replicate 3 (MCC13 cells (VN-MCC); [6]): 310.8; Area under the dose-response curve (AUC) MKL-2 Replicate 1 (MKL-2 cells (VP-MCC); [7]): 297.3; Area under the dose-response curve (AUC) MKL-2 Replicate 2 (MKL-2 cells (VP-MCC); [8]): 300.1; Area under the dose-response curve (AUC) MKL-2 Replicate 3 (MKL-2 cells (VP-MCC); [9]): 296.5; Area under the dose-response curve (AUC) MKL-1 Replicate 1 (MKL-1 cells (VP-MCC); [10]): 316.9; Area under the dose-response curve (AUC) MKL-1 Replicate 2 (MKL-1 cells (VP-MCC); [11]): 311.7; Area under the dose-response curve (AUC) MKL-1 Replicate 3 (MKL-1 cells (VP-MCC); [12]): 312.3; Area under the dose-response curve (AUC) MCC26 Replicate 1 (MCC26 cells (VN-MCC); [13]): 331.2; Area under the dose-response curve (AUC) MCC26 Replicate 2 (MCC26 cells (VN-MCC); [14]): 367.3; Area under the dose-response curve (AUC) MCC26 Replicate 3 (MCC26 cells (VN-MCC); [15]): 295.0; Area under the dose-response curve (AUC) WAGA Replicate 1 (WAGA cells (VP-MCC); [16]): 343.0; Area under the dose-response curve (AUC) WAGA Replicate 2 (WAGA cells (VP-MCC); [17]): 356.1; Area under the dose-response curve (AUC) WAGA Replicate 3 (WAGA cells (VP-MCC); [18]): 341.6 |
| CC[n+]1c(-c2ccccc2)c2cc(N)ccc2c2ccc(N)cc21 [Ethidium bromide] | 333.5 | 324.2 | 301.4 | 459.3 | 449.7 | 444.5 | 300.3 | 311.5 | 284.3 | 280.1 | 244.2 | 288.2 | 428.7 | 414.7 | 412.7 | 318.2 | 323.3 | 317.1 |  |  |  |
| C[C@@H]1O[C@@H](O[C@H]2C[C@@H](O)[C@]3(CO)[C@H]4[C@H](O)C[C@]5(C)[C@@H](C6=CC(=O)OC6)CC[C@]5(O)[C@@H]4CC[C@]3(O)C2)[C@H](O)[C@H](O)[C@H]1O [G-Strophanthin] |  |  |  |  |  |  |  |  |  |  |  |  |  |  |  |  |  |  | 241.1 | 235.2 | Area under the dose-response curve (AUC) UISO Replicate 3 (UISO cells (VN-MCC); [3]): 205.5; Area under the dose-response curve (AUC) MCC13 Replicate 1 (MCC13 cells (VN-MCC); [4]): 250.1; Area under the dose-response curve (AUC) MCC13 Replicate 2 (MCC13 cells (VN-MCC); [5]): 222.2; Area under the dose-response curve (AUC) MCC13 Replicate 3 (MCC13 cells (VN-MCC); [6]): 219.6; Area under the dose-response curve (AUC) MKL-2 Replicate 1 (MKL-2 cells (VP-MCC); [7]): 279.7; Area under the dose-response curve (AUC) MKL-2 Replicate 2 (MKL-2 cells (VP-MCC); [8]): 288.8; Area under the dose-response curve (AUC) MKL-2 Replicate 3 (MKL-2 cells (VP-MCC); [9]): 290.5; Area under the dose-response curve (AUC) MKL-1 Replicate 1 (MKL-1 cells (VP-MCC); [10]): 297.3; Area under the dose-response curve (AUC) MKL-1 Replicate 2 (MKL-1 cells (VP-MCC); [11]): 274.0; Area under the dose-response curve (AUC) MKL-1 Replicate 3 (MKL-1 cells (VP-MCC); [12]): 262.6; Area under the dose-response curve (AUC) MCC26 Replicate 1 (MCC26 cells (VN-MCC); [13]): 280.5; Area under the dose-response curve (AUC) MCC26 Replicate 2 (MCC26 cells (VN-MCC); [14]): 322.9; Area under the dose-response curve (AUC) MCC26 Replicate 3 (MCC26 cells (VN-MCC); [15]): 231.8; Area under the dose-response curve (AUC) WAGA Replicate 1 (WAGA cells (VP-MCC); [16]): 307.5; Area under the dose-response curve (AUC) WAGA Replicate 2 (WAGA cells (VP-MCC); [17]): 286.8; Area under the dose-response curve (AUC) WAGA Replicate 3 (WAGA cells (VP-MCC); [18]): 292.2 |
